From patent publication US20140363810A1, “METHOD OF MEASURING HUMAN CYP3A INDUCIBILITY” (SEKISUI MEDICAL CO., LTD., priority 2002, published 2014)

Columns and labels:
[1] = system: human CYP3A4 inducibility (luciferase reporter AdCYP3A4-362-7K with human PXR expression); assay: in vivo assay, mice infected with virus (A) (AdCYP3A4-362-7K) and virus (B) (AdhPXR); conditions: 100 mg/kg/day×3; virus (A) AdCYP3A4-362-7K, co-administration with virus (B) per FIG. 8
Description: (§1) The initial plan for viral administration was an intravenous route through the tail vein. […] Therefore, the route was changed to intraperitoneal administration so that the animal could not acutely respond to the virus. […] Two days after virus administration, each animal was dissected to remove the organ of interest (liver). The liver was homogenized and centrifuged at 9,000×g. Luciferase activity of the supernatant (S-9) was measured (FIG. 4).

[2] = system: CYP3A4 inducibility (luciferase reporter AdCYP3A4-362-7K); assay: in vitro reporter assay, cultured cells infected with virus (A) (AdCYP3A4-362-7K); conditions: 10 μM, without virus (B)
Description: (§2) A recombinant adenovirus was constructed through the following process.
(§3) Briefly, cells were seeded in a 24-well plate in an amount of 2.0×10^5 cells per well. On the following day; i.e., day 1, the cells were treated with a drug. On day 2, the drug-treated cells were infected with virus, and, 48 hours after viral infection, the cells were recovered. The recovered cells were lysed by use of a reporter lysis buffer (RLB), and the luciferase activity of the lysate was measured.
(§4) Next, virus (B) (AdhPXR) was employed to thereby cause strong expression of hPXR.

[3] = system: CYP3A4 inducibility (luciferase reporter AdCYP3A4-362); assay: in vivo assay, luciferase activity in liver S-9 of mice given AdCYP3A4-362 virus; conditions: 100 mg/kg intraperitoneally once a day for three days, liver two days after virus
Description: as §1

[4] = system: CYP3A4 inducibility (luciferase reporter AdCYP3A4-362-7K with hPXR expression); assay: in vitro reporter assay, cultured cells infected with virus (A) (AdCYP3A4-362-7K) and virus (B) (AdhPXR); conditions: 10 μM, virus (A) AdCYP3A4-362-7K plus virus (B) AdhPXR
Description: as §2, §3, §4

[5] = system: CYP3A4 inducibility (luciferase reporter, CYP3A4 -362 to +11 fragment); assay: in vitro reporter (luciferase) assay, cultured cells infected with AdCYP3A4-362 virus; conditions: 10 μM in DMSO, human liver-cancer-derived cultured cells
Description: as §2, §3
All these drugs are known to elicit CYP3A4 induction when administered to humans.

Compound: Clc1ccccc1C(c1ccccc1)(c1ccccc1)n1ccnc1 [clotrimazole]
- attained inducibility (transcription activation) in mice infected with virus (A) [1]: 1,000 times
- induction of luciferase activity [2]: 21 times
- increase of luciferase activity in mouse liver S-9 compared with control [3]: about nine
- luciferase activity relative to non-treatment [4]: 60 times
- elevated luciferase activity level [5]: about eight
